Measurements: publication PMC7397076 (Molecules, 2020)
In brackets after ≈: the same amount, converted by molar mass. Read-outs that look alike come from different tables or passages of the source.

How the values were obtained:
[1] = tested on: Mycobacterium tuberculosis H37Rv; assay: Microplate Alamar Blue Assay (MABA), antitubercular activity; format: cell-based
[2] = tested on: Vero cell line; assay: Cytotoxicity test, MTT assay; format: cell-based, African green monkey; details: Chlorocebus sabaeus, 24 h, Vero cells, 24 h exposure, 0.1–200 µg/mL, read-out: Vero Cell Line IC50 ± SEM
[3] = biological target: InhA reductase enzyme (Mycobacterium tuberculosis, UniProt P9WGR1); assay: In vitro InhA enzyme inhibition (NADH oxidation at 340 nm)
Chain of InhA reductase enzyme (P9WGR1 whole entry, looked up): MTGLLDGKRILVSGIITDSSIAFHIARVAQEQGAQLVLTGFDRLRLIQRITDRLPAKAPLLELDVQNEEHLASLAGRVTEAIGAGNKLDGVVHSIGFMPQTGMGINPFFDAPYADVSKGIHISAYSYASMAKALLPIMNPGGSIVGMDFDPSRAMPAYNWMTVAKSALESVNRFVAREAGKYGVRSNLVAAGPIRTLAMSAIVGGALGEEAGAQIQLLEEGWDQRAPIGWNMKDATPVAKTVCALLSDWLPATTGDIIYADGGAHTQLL

[4] = M. tuberculosis H37Rv, MABA, lowest concentration giving ≥90% reduction in fluorescence
[5] = Mycobacterium tuberculosis, H37RV, M. tuberculosis H37Rv, MABA, lowest concentration giving ≥90% reduction in fluorescence, read-out: MIC

Structure (SMILES): NNC(=O)c1ccc(Oc2ccccc2)cc1 [Compound 3, 4-Phenoxybenzohydrazide]
- MIC [1, 4]: 0.86 µg/mL (≈ 3.77 µM)
- MIC [1, 5]: 0.61 to 1.69 µg/mL (≈ 2.67 to 7.4 µM)
- IC50 [2]: > 60 µg/mL
- IC50 [3]: 3.43 µM

Structure (SMILES): c1ccc(Oc2ccc(-c3nnco3)cc2)cc1 [Compound 4, 2-(4-Phenoxyphenyl)-1,3,4-oxadiazole]
- MIC [1, 4]: 0.61 µg/mL (≈ 2.56 µM)
- MIC [1, 5]: 0.61 to 1.69 µg/mL (≈ 2.56 to 7.09 µM)
- IC50 [2]: > 60 µg/mL
- IC50 [3]: 3.28 µM

Structure (SMILES): c1ccc(Oc2ccc(-c3nnc(-c4ccccc4)o3)cc2)cc1 [Compound 6a, 2-(4-Phenoxyphenyl)-5-phenyl-1,3,4-oxadiazole]
- melting point: 233 to 235 °C
- MIC [1, 5]: 2.74 µg/mL (≈ 8.72 µM)
- IC50 [3]: > 100 µM

Structure (SMILES): COc1cc(-c2nnc(-c3ccc(Oc4ccccc4)cc3)o2)cc(OC)c1OC [Compound 6b, 2-(4-Phenoxyphenyl)-5-(3,4,5-trimethoxyphenyl)-1,3,4-oxadiazole]
- melting point: 250 to 253 °C
- MIC [1, 5]: 34.6 µg/mL (≈ 85.7 µM)
- IC50 [3]: > 100 µM

Structure (SMILES): COc1ccc(-c2nnc(-c3ccc(Oc4ccccc4)cc3)o2)cc1 [Compound 6c, 2-(4-Methoxyphenyl)-5-(4-phenoxyphenyl)-1,3,4-oxadiazole]
- melting point: 226 to 228 °C
- MIC [1, 5]: 39 µg/mL (≈ 113 µM)
- IC50 [3]: > 100 µM

Structure (SMILES): O=[N+]([O-])c1ccc(-c2nnc(-c3ccc(Oc4ccccc4)cc3)o2)cc1 [Compound 6d, 2-(4-Nitrophenyl)-5-(4-phenoxyphenyl)-1,3,4-oxadiazole]
- melting point: 226 to 228 °C
- MIC [1, 5]: 15.2 µg/mL (≈ 42.2 µM)
- IC50 [3]: 68.4 µM

Structure (SMILES): Clc1ccc(-c2nnc(-c3ccc(Oc4ccccc4)cc3)o2)cc1 [Compound 6e, 2-(4-Chlorophenyl)-5-(4-phenoxyphenyl)-1,3,4-oxadiazole]
- MIC [1, 5]: 15.9 µg/mL (≈ 45.6 µM)
- IC50 [3]: 64.5 µM

Structure (SMILES): c1ccc(COc2ccc(-c3nnc(-c4ccc(Oc5ccccc5)cc4)o3)cc2)cc1 [Compound 6f, 2-(4-(Benzyloxy)phenyl)-5-(4-phenoxyphenyl)-1,3,4-oxadiazole]
- melting point: 226 to 229 °C
- MIC [1, 5]: 8.23 µg/mL (≈ 19.6 µM)
- IC50 [3]: 41.2 µM

Structure (SMILES): c1ccc(Oc2ccc(-c3nnc(-c4cccc5ccccc45)o3)cc2)cc1 [Compound 6g, 2-(Naphthalen-1-yl)-5-(4-phenoxyphenyl)-1,3,4-oxadiazole]
- melting point: 173 to 175 °C
- MIC [1, 5]: 12.2 µg/mL (≈ 33.6 µM)
- IC50 [3]: 33.8 µM

Structure (SMILES): c1ccc(Oc2ccc(-c3nnc(-c4cccnc4)o3)cc2)cc1 [Compound 6h, 2-(4-Phenoxyphenyl)-5-(pyridin-3-yl)-1,3,4-oxadiazole]
- melting point: 143 to 144 °C
- IC50 [2]: > 60 µg/mL
- IC50 [3]: 5.08 µM

Structure (SMILES): c1ccc(Oc2ccc(-c3nnc(-c4ccncc4)o3)cc2)cc1 [Compound 6i, 2-(4-Phenoxyphenyl)-5-(pyridin-4-yl)-1,3,4-oxadiazole]
- melting point: 125 to 127 °C
- IC50 [2]: > 60 µg/mL
- IC50 [3]: 11.7 µM

Structure (SMILES): c1ccc(Oc2ccc(-c3nnc(-c4ccco4)o3)cc2)cc1 [Compound 6j, 2-(Furan-2-yl)-5-(4-phenoxyphenyl)-1,3,4-oxadiazole]
- melting point: 129 to 132 °C
- MIC [1, 5]: 11.1 µg/mL (≈ 36.5 µM)
- IC50 [3]: 51.4 µM

Structure (SMILES): c1ccc(Oc2ccc(-c3nnc(-c4cccs4)o3)cc2)cc1 [Compound 6k, 2-(4-Phenoxyphenyl)-5-(thiophen-2-yl)-1,3,4-oxadiazole]
- melting point: 139 to 141 °C
- IC50 [2]: 68.6 ± 1.19 µg/mL (≈ 214 µM)
- IC50 [3]: 78.6 µM

Structure (SMILES): c1ccc(Oc2ccc(-c3nnc(-c4ccc(Oc5ccccc5)cc4)o3)cc2)cc1 [Compound 6l, 2,5-bis(4-Phenoxyphenyl)-1,3,4-oxadiazole]
- melting point: 232 to 234 °C
- MIC [1, 4]: 1.17 µg/mL (≈ 2.88 µM)
- MIC [1, 5]: 0.61 to 1.69 µg/mL (≈ 1.5 to 4.16 µM)
- IC50 [2]: > 60 µg/mL
- IC50 [3]: 5.63 µM

Structure (SMILES): O=C(N/N=C/c1ccccc1)c1ccc(Oc2ccccc2)cc1 [Compound 8a, (E)-N′-Benzylidene-4-phenoxybenzohydrazide]
- melting point: 163 to 165 °C
- MIC [1, 5]: 34.5 µg/mL (≈ 109 µM)
- IC50 [3]: 73.2 µM

Structure (SMILES): COc1cc(/C=N/NC(=O)c2ccc(Oc3ccccc3)cc2)cc(OC)c1OC [Compound 8b, (E)-4-Phenoxy-N′-(3,4,5-trimethoxybenzylidene)benzohydrazide]
- melting point: 191 to 192 °C
- MIC [1, 5]: 50.2 µg/mL (≈ 124 µM)
- IC50 [3]: > 100 µM

Structure (SMILES): COc1ccc(/C=N/NC(=O)c2ccc(Oc3ccccc3)cc2)cc1 [Compound 8c, (E)-N′-(4-Methoxybenzylidene)-4-phenoxybenzohydrazide]
- melting point: 233 to 235 °C
- MIC [1, 5]: 20.7 µg/mL (≈ 59.7 µM)
- IC50 [3]: 75.5 µM

Structure (SMILES): O=C(N/N=C/c1ccc(Cl)cc1)c1ccc(Oc2ccccc2)cc1 [Compound 8e, (E)-N′-(4-Chlorobenzylidene)-4-phenoxybenzohydrazide]
- melting point: 184 to 186 °C
- MIC [1, 5]: 2.89 µg/mL (≈ 8.24 µM)
- IC50 [3]: 7.46 µM

Structure (SMILES): O=C(N/N=C/c1ccc(OCc2ccccc2)cc1)c1ccc(Oc2ccccc2)cc1 [Compound 8f, (E)-N′-[4-(Benzyloxy)benzylidene]-4-phenoxybenzohydrazide]
- melting point: 228 to 231 °C
- MIC [1, 5]: 22.6 µg/mL (≈ 53.5 µM)
- IC50 [3]: 29.9 µM

Structure (SMILES): O=C(N/N=C/c1cccc2ccccc12)c1ccc(Oc2ccccc2)cc1 [Compound 8g, (E)-N′-(Naphthalen-1-ylmethylene)-4-phenoxybenzohydrazide]
- melting point: 193 to 195 °C
- IC50 [2]: > 60 µg/mL
- IC50 [3]: 4.23 µM

Structure (SMILES): O=C(N/N=C/c1cccnc1)c1ccc(Oc2ccccc2)cc1 [Compound 8h, (E)-4-Phenoxy-N′-(pyridin-3-ylmethylene)benzohydrazide]
- melting point: 149 to 151 °C
- MIC [1, 5]: 6.96 µg/mL (≈ 21.9 µM)
- IC50 [3]: 26.5 µM

Structure (SMILES): O=C(N/N=C/c1ccncc1)c1ccc(Oc2ccccc2)cc1 [Compound 8i, (E)-4-Phenoxy-N′-(pyridin-4-ylmethylene)benzohydrazide]
- melting point: 175 to 177 °C
- MIC [1, 5]: 6.82 µg/mL (≈ 21.5 µM)
- IC50 [3]: 21.4 µM

Structure (SMILES): O=C(N/N=C/c1ccco1)c1ccc(Oc2ccccc2)cc1 [Compound 8j, (E)-N′-(Furan-2-ylmethylene)-4-phenoxybenzohydrazide]
- MIC [1, 5]: 6.35 µg/mL (≈ 20.7 µM)
- IC50 [3]: 18.4 µM

Structure (SMILES): O=C(N/N=C/c1cccs1)c1ccc(Oc2ccccc2)cc1 [Compound 8k, (E)-4-Phenoxy-N′-(thiophen-2-ylmethylene)benzohydrazide]
- melting point: 182 to 183 °C
- IC50 [2]: > 60 µg/mL
- IC50 [3]: 5.61 µM

Structure (SMILES): NNC(=O)c1ccncc1 [INH, isoniazid, reference compound]
- MIC [1, 4]: 0.20 µg/mL (≈ 1.46 µM)
- MIC [1, 5]: 0.2 µg/mL (≈ 1.46 µM)

Structure (SMILES): Oc1cc(Cl)ccc1Oc1ccc(Cl)cc1Cl [Triclosan, triclosan, reference compound]
- MIC [1, 4]: 10.00 µg/mL (≈ 34.5 µM)
- MIC ([1]; Mycobacterium tuberculosis, H37RV): 10 µg/mL (≈ 34.5 µM)
